Assay results from publication PMC4462581 (PLoS ONE, 2015).

How the values were obtained:
BoNT/A LC = BoNT/A LC (Clostridium botulinum, UniProt P0DPI0); test: biochemical
[1] = test system: BoNT/A intoxication of mouse ES-MNs (SNAP-25 cleavage); assay type: cell-based
[2] = test system: BoNT/E intoxication of human ES-MNs (SNAP-25 cleavage); assay type: cell-based
[3] = test system: BoNT/A intoxication of mouse ES-MNs (SNAP-25 cleavage); assay type: cell-based; remark: listed apart in the source
[4] = test system: BoNT/A intoxication of human ES-MNs (SNAP-25 cleavage); assay type: cell-based

Chain of BoNT/A LC (P0DPI0 2-448 limits assumed): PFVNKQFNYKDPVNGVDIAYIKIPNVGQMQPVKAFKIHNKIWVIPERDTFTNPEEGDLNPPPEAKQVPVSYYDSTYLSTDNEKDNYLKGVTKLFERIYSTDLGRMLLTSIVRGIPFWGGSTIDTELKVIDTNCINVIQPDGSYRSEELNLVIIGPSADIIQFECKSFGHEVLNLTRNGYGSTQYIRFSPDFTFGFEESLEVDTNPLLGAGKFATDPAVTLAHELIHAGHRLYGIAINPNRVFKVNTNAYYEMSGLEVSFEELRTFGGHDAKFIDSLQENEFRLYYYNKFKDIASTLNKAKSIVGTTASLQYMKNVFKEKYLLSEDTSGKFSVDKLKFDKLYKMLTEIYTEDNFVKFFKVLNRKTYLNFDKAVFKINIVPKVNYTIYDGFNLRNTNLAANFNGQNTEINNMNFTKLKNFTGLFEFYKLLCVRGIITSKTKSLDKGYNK

| Compound | IC50 (BoNT/A LC) [µM] | Protection against BoNT/A (SNAP-25 cleavage), library screen outcome [1] | Protection of SNAP-25 against BoNT/E, 30 min post-intoxication [2] | Protection of SNAP-25 against BoNT/E, 60 min post-intoxication [2] | Protection of SNAP-25 against BoNT/A, western blot [3] | Antagonism of BoNT/A mediated SNAP-25 cleavage, 60 min post-intoxication [4] | Protection of SNAP-25 against BoNT/A, pre-intoxication, dose dependence [4] |
| --- | --- | --- | --- | --- | --- | --- | --- |
| O=C1C(=O)c2ccccc2-c2ccccc21 [9,10-Phenanthrenequinone] | > 20 | identified as potential BoNT/A intoxication inhibitors | statistically significant protection | statistically significant protection | – | – | – |
| CC1(C)C(=O)N=C2C1=C(O)C(=O)c1ccccc12 [BVT 948] | > 20 | identified as potential BoNT/A intoxication inhibitors | efficacious | – | – | – | – |
| O=C1C(Cl)=C(NCCN2CCOCC2)C(=O)c2ncccc21 [NSC 663284] | > 20 | identified as potential BoNT/A intoxication inhibitors | statistically significant protection | statistically significant protection | – | – | – |
| N=C(N)c1ccc(OCCCCCOc2ccc(C(=N)N)cc2)cc1 [Pentamidine] | > 20 | identified as potential BoNT/A intoxication inhibitors | not statistically significant | not statistically significant | qualitatively lower level of SNAP-25 cleavage protection | trended toward, but did not reach, statistical significance | qualitatively lower level of SNAP-25 cleavage protection |
| CO/C1=C\C(C)=C\[C@@H](C)[C@@H](O)[C@@H](C)C/C(C)=C/C=C/[C@H](OC)[C@@H]([C@@H](C)[C@@H](O)[C@H](C)[C@@]2(O)C[C@@H](O)[C@H](C)[C@@H](C(C)C)O2)OC1=O [bafilomycin] | – | – | – | – | – | – | dose-dependent protection |
